Measurements: publication PMC8452302 (CPT: Pharmacometrics & Systems Pharmacology, 2021)
Like-named read-outs stand apart in the source and are kept apart here.

T1: BCRP (Homo sapiens, UniProt Q9UNQ0)
T1 sequence (Q9UNQ0 1-655): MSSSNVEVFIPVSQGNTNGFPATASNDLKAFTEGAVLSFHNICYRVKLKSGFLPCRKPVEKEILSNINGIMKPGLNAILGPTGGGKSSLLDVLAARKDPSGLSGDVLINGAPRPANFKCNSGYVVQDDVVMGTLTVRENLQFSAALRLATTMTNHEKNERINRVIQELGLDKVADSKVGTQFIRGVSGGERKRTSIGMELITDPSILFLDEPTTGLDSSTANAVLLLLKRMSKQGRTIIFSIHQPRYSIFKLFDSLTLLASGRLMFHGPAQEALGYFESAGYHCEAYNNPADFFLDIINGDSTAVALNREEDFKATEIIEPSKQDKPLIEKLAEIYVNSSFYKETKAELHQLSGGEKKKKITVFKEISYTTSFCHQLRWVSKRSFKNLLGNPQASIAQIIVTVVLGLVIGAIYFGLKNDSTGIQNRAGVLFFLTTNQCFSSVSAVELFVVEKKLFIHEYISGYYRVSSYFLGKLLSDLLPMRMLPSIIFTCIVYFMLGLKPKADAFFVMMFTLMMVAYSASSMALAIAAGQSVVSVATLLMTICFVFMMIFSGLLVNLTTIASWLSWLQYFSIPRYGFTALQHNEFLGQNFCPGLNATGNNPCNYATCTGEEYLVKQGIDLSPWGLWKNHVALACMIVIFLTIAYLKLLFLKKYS

T2: OATP1B3 (Homo sapiens, UniProt Q9NPD5)
T2 sequence (Q9NPD5 1-702): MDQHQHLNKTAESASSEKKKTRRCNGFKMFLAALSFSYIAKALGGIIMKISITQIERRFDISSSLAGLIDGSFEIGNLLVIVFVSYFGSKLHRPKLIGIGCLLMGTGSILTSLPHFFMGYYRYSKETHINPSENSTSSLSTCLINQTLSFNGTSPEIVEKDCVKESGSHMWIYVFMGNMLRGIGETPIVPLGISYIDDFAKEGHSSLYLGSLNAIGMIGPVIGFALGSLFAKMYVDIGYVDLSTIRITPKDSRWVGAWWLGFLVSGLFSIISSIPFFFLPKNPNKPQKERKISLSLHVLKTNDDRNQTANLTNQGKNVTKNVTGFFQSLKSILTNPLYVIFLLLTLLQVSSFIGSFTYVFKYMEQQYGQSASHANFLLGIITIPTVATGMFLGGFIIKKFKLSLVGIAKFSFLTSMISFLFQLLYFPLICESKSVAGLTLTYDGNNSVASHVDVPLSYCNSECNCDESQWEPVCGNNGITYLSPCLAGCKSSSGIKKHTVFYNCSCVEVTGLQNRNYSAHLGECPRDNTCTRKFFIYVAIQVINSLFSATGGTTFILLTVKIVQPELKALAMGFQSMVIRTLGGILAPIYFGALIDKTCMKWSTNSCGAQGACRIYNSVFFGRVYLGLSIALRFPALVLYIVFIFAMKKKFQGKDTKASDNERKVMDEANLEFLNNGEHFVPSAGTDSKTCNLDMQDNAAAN

T3: OATP1B1 (Homo sapiens, UniProt Q9Y6L6)
T3 sequence (Q9Y6L6 1-691): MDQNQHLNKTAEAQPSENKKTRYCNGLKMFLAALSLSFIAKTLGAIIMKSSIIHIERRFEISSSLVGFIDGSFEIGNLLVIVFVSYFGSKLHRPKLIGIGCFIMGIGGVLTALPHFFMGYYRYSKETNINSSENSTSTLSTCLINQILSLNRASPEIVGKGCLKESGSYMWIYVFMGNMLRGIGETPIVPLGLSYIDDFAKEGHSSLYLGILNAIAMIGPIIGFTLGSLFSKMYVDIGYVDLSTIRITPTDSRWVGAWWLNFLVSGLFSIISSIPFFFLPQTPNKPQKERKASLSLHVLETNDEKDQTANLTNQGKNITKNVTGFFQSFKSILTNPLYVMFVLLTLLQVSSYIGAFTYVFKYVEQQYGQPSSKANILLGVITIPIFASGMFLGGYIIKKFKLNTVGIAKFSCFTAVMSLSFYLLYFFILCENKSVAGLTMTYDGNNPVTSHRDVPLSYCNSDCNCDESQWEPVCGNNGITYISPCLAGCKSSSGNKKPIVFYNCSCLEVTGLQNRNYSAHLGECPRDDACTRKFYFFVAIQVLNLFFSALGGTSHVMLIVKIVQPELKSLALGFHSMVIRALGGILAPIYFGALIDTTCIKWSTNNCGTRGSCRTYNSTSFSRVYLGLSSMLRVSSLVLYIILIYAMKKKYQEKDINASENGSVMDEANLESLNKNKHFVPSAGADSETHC

B1: OATP1B1 (Homo sapiens) (protein)
chain: T3 sequence (Q9Y6L6 1-691)
B2: BCRP (Homo sapiens) (protein)
chain: T1 sequence (Q9UNQ0 1-655)

What was measured:
BCRP = molecular target: T1, BCRP; assay: In vitro BCRP inhibition, HEK293-BCRP membrane vesicles, rosuvastatin probe; assay type: biochemical
OATP1B3 [1] = molecular target: T2, OATP1B3; assay: Static DDI risk assessment, OATP1B3 R-value; settings: 1 + Iin,max,u/IC50; metabolite/combination additive; Imax,u for IV
[2] = cited from earlier work; for Rosuvastatin AUC ratio: observed, rosuvastatin with vs without inhibitor; for Rosuvastatin AUC ratio / Cmax ratio Observed: ref Table S1; for Cmax ratio Observed: rosuvastatin with/without inhibitor, regimens as in table row
OATP1B3 [3] = molecular target: T2, OATP1B3; assay: In vitro OATP1B3 inhibition, transfected HEK293 cells, rosuvastatin probe; assay type: cell-based
OATP1B1 [4] = molecular target: T3, OATP1B1; assay: Static DDI risk assessment, OATP1B1 R-value; settings: 1 + Iin,max,u/IC50; metabolite/combination additive; Imax,u for IV
OATP1B1 [5] = molecular target: T3, OATP1B1; assay: In vitro OATP1B1 inhibition, transfected HEK293 cells, rosuvastatin probe; assay type: cell-based
OATP1B1 [6] = settings: cited from earlier work
BCRP (ABCG2 c.421C>A) = settings: cited from earlier work
[7] = substrate: CC(C)c1nc(N(C)S(C)(=O)=O)nc(-c2ccc(F)cc2)c1/C=C/[C@@H](O)C[C@@H](O)CC(=O)O; assay: OATP1B1-mediated transport of substrate; assay type: in vitro ADME; settings: other: transfected HEK293 cells
[8] = substrate: CC(C)c1nc(N(C)S(C)(=O)=O)nc(-c2ccc(F)cc2)c1/C=C/[C@@H](O)C[C@@H](O)CC(=O)O; assay: BCRP-mediated transport of substrate; assay type: in vitro ADME, human; settings: other: membrane vesicles

Molecule | IC50 (BCRP) [µM] | 1B3 R-Value (OATP1B3 [1]) | Rosuvastatin AUC ratio [2] | IC50 (OATP1B3 [3]) [µM] | 1B1 R-Value (OATP1B1 [4]) | IC50 (OATP1B1 [5]) [µM] | Cmax ratio Observed [2] | further results
CC[C@H]1[C@@H](O)[C@@H]2[C@H](CC[C@]3(C)[C@@H]([C@H](C)CCC(=O)O)CC[C@@H]23)[C@@]2(C)CC[C@@H](O)C[C@@H]12 [Obeticholic acid] | 4.1 | 1.02 | 1.25 | 2.15 | 1.02 | 1.96 |  | 
C=C[C@@H]1C[C@]1(NC(=O)[C@@H]1C[C@@H]2CN1C(=O)[C@H](C(C)(C)C)NC(=O)O[C@@H]1C[C@H]1CCCCCc1nc3ccc(OC)cc3nc1O2)C(=O)NS(=O)(=O)C1CC1.O [Grazoprevir] |  | 1.07 | 1.59 |  | 1.24 |  | 4.25 | effect on clinical PK of pitavastatin (OATP1B1 probe substrate) (OATP1B1 [6]): do not alter; IC50 (BCRP; read-out: BCRP IC50, membrane vesicles, rosuvastatin 0.2 µM probe): 4.03 µM
CNC(=O)c1ccc(-c2cnc3ncc(Cc4ccc5ncccc5c4)n3n2)cc1F [Capmatinib] | 0.69 | 1.08 | 2.03 | 14.5 | 1.35 | 3.3 | 3.05 | 
COC(=O)N[C@H](C(=O)N1CCC[C@H]1c1nc(-c2ccc3c(c2)O[C@@H](c2ccccc2)n2c-3cc3cc(-c4c[nH]c([C@@H]5CCCN5C(=O)[C@@H](NC(=O)OC)C(C)C)n4)ccc32)c[nH]1)C(C)C [Elbasvir] | 0.14 | 1.00 | 1.42 | > 10 | 1.00 | 7.8 |  | 
CC1=NN(c2ccc(C)c(C)c2)C(=O)/C1=N\Nc1cccc(-c2cccc(C(=O)O)c2)c1O [Eltrombopag] | 0.95 | 1.10 | 1.55 | 3 | 1.01 | 27.3 |  | 
O=C(O)c1cc(/N=N/c2ccc(S(=O)(=O)Nc3ccccn3)cc2)ccc1O [sulfasalazine] |  |  |  |  |  |  |  | increase in oral exposure, c.421A/A vs c.421C/C carriers (BCRP (ABCG2 c.421C>A)): ≤ 3.5 fold
C[C@H]1CN(C2COC2)CCN1c1ccc(Nc2cc(-c3ccnc(N4CCn5c(cc6c5CC(C)(C)C6)C4=O)c3CO)cn(C)c2=O)nc1 [Fenebrutinib] | 0.63 | 3.86 | 2.48 | 1.1 | 1.46 | 6.8 | 4.74 | change in plasma exposure of OATP1B1 biomarker coproporphyrin I (OATP1B1 [6]): no change; increase in rosuvastatin AUC [2]: ~ 150%
B1 |  |  |  |  |  |  |  | Km [7]: 3.8 µM
B2 |  |  |  |  |  |  |  | Km [8]: 3.2 µM
